The target in experiment [1] is T1, 5-HT4 (Cavia porcellus, UniProt O70528).
T1 construct: purchased MDS Pharma services 272000
Briefly: Radioligand receptor binding assay (MDS Pharma). As for the experimental part: (§1) Receptor binding assays. Receptor binding assays were performed by MDS Pharma services. Assays included: Adenosine A1 (cat# 200510), Adenosine A2A (cat# 200610), Adenosine A3 (cat# 200720), Adrenergic alpha 1 (cat# 203500), Imidazoline 12 central (cat# 241000), Imidazoline I2 peripheral (cat# 241100), Inositol triphosphate (cat# 242500), Phorbol Ester (cat# 264500), 5-HT 2B (cat# 271700), and 5-HT 4 (cat# 272000).
(§2) • Summary of radioligand binding assays for 11 receptors. Data represent % inhibition of ligand binding in the presence of 10 μM 18264 (n=2).

The target of experiment [2] is T2, Adenosine A1 (Homo sapiens, UniProt P30542).
T2 construct: purchased MDS Pharma services 200510
T2 sequence (P30542 1-326): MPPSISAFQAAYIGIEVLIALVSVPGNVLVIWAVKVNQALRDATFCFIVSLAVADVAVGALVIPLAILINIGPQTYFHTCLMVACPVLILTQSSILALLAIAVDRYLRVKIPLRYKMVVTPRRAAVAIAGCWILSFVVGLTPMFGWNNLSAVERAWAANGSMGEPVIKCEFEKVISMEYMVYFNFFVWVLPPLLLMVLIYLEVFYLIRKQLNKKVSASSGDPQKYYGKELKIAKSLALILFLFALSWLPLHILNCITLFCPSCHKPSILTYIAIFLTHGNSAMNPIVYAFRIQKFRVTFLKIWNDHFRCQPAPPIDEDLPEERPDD
Briefly: Radioligand receptor binding assay (MDS Pharma). The note with it: 10 μM compound, n=2. As for the experimental part: as §1, §2

Experiment [3] has as its target T3, Adenosine A2A (Homo sapiens, UniProt P29274).
T3 construct: purchased MDS Pharma services 200610
Briefly: Radioligand receptor binding assay (MDS Pharma). Conditions: 10 μM compound, n=2. As for the experimental part: as §1, §2

The target of experiment [4] is T4, Adenosine A3 (Homo sapiens, UniProt P0DMS8).
T4 construct: purchased MDS Pharma services 200720
T4 sequence (P0DMS8 1-318): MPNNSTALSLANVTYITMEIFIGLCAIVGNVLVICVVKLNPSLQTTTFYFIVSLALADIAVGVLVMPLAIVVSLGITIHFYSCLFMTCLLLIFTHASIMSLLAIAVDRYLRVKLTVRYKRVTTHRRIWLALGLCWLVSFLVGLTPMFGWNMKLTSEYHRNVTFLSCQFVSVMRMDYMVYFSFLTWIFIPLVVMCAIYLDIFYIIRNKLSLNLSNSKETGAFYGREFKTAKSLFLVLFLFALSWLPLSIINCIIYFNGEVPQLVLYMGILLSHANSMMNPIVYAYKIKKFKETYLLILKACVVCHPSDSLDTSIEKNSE
Briefly: Radioligand receptor binding assay (MDS Pharma). Conditions: 10 μM compound, n=2. As for the experimental part:
as §1, §2

Experiment [5] has as its system Adrenergic alpha 1. The experiment in a line: Radioligand receptor binding assay (MDS Pharma). Conditions: 10 μM compound, n=2. As for the experimental part:
as §1, §2

For experiment [6], the system named is Imidazoline I2, central. The experiment in a line: Radioligand receptor binding assay (MDS Pharma). The note with it: 10 μM compound, n=2. As to the method:
as §1, §2

In experiment [7] the test system is Imidazoline I2, peripheral. Briefly: Radioligand receptor binding assay (MDS Pharma). Conditions: 10 μM compound, n=2. As for the experimental part:
as §1, §2

In experiment [8] the target is T5, Inositol Triphosphate IP3 (Rattus norvegicus, UniProt P29994).
T5 construct: purchased MDS Pharma services 242500
T5 sequence (P29994 whole entry): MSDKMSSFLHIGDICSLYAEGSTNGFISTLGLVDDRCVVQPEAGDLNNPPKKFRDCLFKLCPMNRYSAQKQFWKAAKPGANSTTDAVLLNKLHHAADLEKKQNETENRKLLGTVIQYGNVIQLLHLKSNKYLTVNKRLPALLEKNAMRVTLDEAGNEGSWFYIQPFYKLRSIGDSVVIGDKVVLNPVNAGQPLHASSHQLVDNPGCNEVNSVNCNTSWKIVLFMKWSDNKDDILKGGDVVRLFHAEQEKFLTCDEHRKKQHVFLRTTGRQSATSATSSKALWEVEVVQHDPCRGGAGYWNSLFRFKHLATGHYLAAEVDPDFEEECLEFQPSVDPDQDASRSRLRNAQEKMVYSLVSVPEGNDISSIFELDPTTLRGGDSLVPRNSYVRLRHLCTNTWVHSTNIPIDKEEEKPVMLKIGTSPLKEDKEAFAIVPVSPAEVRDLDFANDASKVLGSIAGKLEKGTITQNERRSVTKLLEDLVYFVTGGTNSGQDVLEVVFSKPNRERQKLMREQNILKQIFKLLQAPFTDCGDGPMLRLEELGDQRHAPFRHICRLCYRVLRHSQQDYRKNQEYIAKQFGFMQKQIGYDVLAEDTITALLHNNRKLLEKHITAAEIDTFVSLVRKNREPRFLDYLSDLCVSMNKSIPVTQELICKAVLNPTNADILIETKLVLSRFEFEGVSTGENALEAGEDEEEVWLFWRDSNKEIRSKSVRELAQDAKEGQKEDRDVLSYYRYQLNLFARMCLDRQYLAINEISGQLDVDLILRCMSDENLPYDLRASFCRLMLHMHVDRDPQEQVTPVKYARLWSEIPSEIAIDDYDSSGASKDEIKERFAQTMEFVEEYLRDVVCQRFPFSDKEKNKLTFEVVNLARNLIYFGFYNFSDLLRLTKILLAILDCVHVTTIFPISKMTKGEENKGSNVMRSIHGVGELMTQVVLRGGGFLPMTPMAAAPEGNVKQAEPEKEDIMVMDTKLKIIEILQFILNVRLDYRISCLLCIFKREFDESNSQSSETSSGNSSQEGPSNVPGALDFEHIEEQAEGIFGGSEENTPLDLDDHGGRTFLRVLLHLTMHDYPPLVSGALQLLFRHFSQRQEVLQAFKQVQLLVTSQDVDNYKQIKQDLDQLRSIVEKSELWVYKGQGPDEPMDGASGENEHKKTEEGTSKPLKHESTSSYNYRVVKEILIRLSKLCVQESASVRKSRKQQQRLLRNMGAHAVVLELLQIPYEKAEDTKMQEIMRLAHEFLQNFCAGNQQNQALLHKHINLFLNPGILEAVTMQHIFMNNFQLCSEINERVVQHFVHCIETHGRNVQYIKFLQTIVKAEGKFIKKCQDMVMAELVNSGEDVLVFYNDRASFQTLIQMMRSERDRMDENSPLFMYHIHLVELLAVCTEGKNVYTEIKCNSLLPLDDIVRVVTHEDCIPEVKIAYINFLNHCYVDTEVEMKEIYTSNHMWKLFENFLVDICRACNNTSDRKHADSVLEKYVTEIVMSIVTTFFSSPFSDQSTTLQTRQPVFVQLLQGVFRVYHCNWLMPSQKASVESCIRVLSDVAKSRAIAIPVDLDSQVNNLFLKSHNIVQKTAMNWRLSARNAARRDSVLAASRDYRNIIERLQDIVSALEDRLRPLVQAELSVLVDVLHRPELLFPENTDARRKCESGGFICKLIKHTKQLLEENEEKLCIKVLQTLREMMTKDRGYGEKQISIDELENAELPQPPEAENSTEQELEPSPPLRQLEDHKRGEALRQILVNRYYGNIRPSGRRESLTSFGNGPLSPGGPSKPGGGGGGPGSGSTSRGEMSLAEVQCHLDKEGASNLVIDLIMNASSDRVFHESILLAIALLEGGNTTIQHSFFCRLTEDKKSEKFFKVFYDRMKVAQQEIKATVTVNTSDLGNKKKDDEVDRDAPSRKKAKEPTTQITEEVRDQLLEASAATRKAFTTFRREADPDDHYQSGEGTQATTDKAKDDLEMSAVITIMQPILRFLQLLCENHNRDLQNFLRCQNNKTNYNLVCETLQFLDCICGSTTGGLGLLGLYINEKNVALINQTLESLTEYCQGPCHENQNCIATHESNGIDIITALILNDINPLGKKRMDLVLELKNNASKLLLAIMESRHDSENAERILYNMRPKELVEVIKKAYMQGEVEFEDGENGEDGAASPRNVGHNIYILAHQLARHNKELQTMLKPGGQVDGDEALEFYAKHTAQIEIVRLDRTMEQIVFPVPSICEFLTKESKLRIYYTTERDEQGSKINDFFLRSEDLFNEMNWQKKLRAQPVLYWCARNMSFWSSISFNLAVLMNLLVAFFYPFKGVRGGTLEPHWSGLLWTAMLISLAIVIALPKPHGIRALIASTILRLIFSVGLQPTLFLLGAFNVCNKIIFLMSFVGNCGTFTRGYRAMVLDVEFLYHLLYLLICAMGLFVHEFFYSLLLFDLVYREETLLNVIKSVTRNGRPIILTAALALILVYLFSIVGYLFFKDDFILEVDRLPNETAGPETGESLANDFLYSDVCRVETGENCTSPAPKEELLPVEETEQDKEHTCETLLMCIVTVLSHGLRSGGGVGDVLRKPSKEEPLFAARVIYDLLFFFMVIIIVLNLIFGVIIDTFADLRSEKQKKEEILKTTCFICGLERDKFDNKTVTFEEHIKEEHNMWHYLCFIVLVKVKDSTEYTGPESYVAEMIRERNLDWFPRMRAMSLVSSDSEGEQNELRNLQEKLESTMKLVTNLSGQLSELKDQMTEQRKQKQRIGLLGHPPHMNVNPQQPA
The experiment in a line: Radioligand receptor binding assay (MDS Pharma). Conditions: 10 μM compound, n=2. As to the method:
as §1, §2

For experiment [9], the system named is Phorbol Ester. Briefly: Radioligand receptor binding assay (MDS Pharma). The note with it: 10 μM compound, n=2. As for the experimental part: as §1, §2
The subject of experiment [10] is neonatal rat ventricular myocytes (NRVM). The experiment in a line: ANF secretion by competitive ELISA in NRVM. Type of experiment: cell-based. The note with it: NRVM stimulated with compound alone. As for the experimental part:
NRVM culture. For preparations of neonatal rat ventricular myocytes (NRVMs), hearts were removed from 10-20 newborn (1-2 days old) Sprague-Dawley rats. Isolated ventricles were pooled, minced and dispersed by three 20-min incubations at 37° C. in Ads buffer (116 mM NaCl, 20 mM HEPES, 10 mM NaH2PO4, 5.5 mM glucose, 5 mM KCl, 0.8 mM MgSO4, pH 7.4) containing collagenase Type II (65 units/ml, Worthington) and pancreatin (0.6 mg/ml, GibcoBRL). Dispersed cells were applied to a discontinuous gradient of 40.5% and 58.5% (v/v) Percoll (Amersham Biosciences), centrifuged, and myocytes collected from the interface layer. Myocyte preparations were pre-plated in Dulbecco's modified Eagle's medium (DMEM, Cellgro), supplemented with 10% (v/v) fetal bovine serum (FBS, HyClone), 4 mM L-glutamine and 1% penicillin/streptomycin for 1 hour at 37° C. to reduce fibroblast contamination, then plated at a density of 2.5×10^5 cells per well on 6-well tissue culture plates (or 10,000 cells/well on 96-well tissue culture plates) coated with a 0.2% (w/v) gelatin solution. […]
(§3) Hypertrophy and toxicity assays. Primary hypertrophy endpoints for NRVM included quantitation of: ANF secretion, total cellular protein and cell volume. ANF in media supernatants was quantitated by competitive ELISA using a monoclonal anti-ANF antibody (Biodesign) and a biotinylated ANF peptide (Phoenix Peptide). Total cellular protein was quantitated by standard Coomassie dye-binding assay; cells were lysed in protein assay reagent (BioRad) and absorbance at A595 was measured after 1 hour. […] After recovery by centrifugation, cell pellets were washed in PBS, resuspended in 10 ml IsoFlow electrolyte solution (Beckman-Coulter) and analyzed with a Z2 Coulter Particle Counter and Size Analyzer (Beckman-Coulter). Cytotoxicity was quantitated by measuring release of adenylate kinase (AK) from cultured NRVM into culture medium (ToxiLight kit, Cambrex).
(ELISA stands for enzyme-linked immunosorbent assay.)

For experiment [11] the test system is unchanged. Briefly: Total cellular protein (Coomassie dye-binding) in NRVM. Type of experiment: cell-based. The note with it: NRVM stimulated with compound alone. As to the method:
NRVM culture. For preparations of neonatal rat ventricular myocytes (NRVMs), hearts were removed from 10-20 newborn (1-2 days old) Sprague-Dawley rats. Isolated ventricles were pooled, minced and dispersed by three 20-min incubations at 37° C. in Ads buffer (116 mM NaCl, 20 mM HEPES, 10 mM NaH2PO4, 5.5 mM glucose, 5 mM KCl, 0.8 mM MgSO4, pH 7.4) containing collagenase Type II (65 units/ml, Worthington) and pancreatin (0.6 mg/ml, GibcoBRL). Dispersed cells were applied to a discontinuous gradient of 40.5% and 58.5% (v/v) Percoll (Amersham Biosciences), centrifuged, and myocytes collected from the interface layer. […]
as §3, with “Cytotoxicity was quantitated by measuring release of adenylate kinase (AK) from cultured NRVM into culture medium (ToxiLight kit, Cambrex).” left out

In experiment [12] the test system is HDAC5. The experiment in a line: HDAC localization assay, GFP-HDAC5 in NRVM. Type of experiment: cell-based, rat. The note with it: NRVM, two hours; 18264 1 μM, PE 20 μM. As for the experimental part:
NRVM culture. For preparations of neonatal rat ventricular myocytes (NRVMs), hearts were removed from 10-20 newborn (1-2 days old) Sprague-Dawley rats. Isolated ventricles were pooled, minced and dispersed by three 20-min incubations at 37° C. in Ads buffer (116 mM NaCl, 20 mM HEPES, 10 mM NaH2PO4, 5.5 mM glucose, 5 mM KCl, 0.8 mM MgSO4, pH 7.4) containing collagenase Type II (65 units/ml, Worthington) and pancreatin (0.6 mg/ml, GibcoBRL). Dispersed cells were applied to a discontinuous gradient of 40.5% and 58.5% (v/v) Percoll (Amersham Biosciences), centrifuged, and myocytes collected from the interface layer. Myocyte preparations were pre-plated in Dulbecco's modified Eagle's medium (DMEM, Cellgro), supplemented with 10% (v/v) fetal bovine serum (FBS, HyClone), 4 mM L-glutamine and 1% penicillin/streptomycin for 1 hour at 37° C. to reduce fibroblast contamination, then plated at a density of 2.5×10^5 cells per well on 6-well tissue culture plates (or 10,000 cells/well on 96-well tissue culture plates) coated with a 0.2% (w/v) gelatin solution. After 24 hours in culture, myocyte preparations were transferred to serum-free maintenance medium (DMEM supplemented with 0.1% (v/v) Nutridoma (Roche), L-glutamine and penicillin/streptomycin). Where indicated, NRVM were treated with test compounds for a period of 48 h. For immunofluorescence applications, NRVM cultures were fixed, incubated with primary antibodies against alpha skeletal actin and atrial natriuretic factor, then incubated with rhodamine- or flurorescein-conjugated secondary antibodies. For HDAC localization assays, NRVM were plated to clear bottomed 96-well plates and infected overnight with recombinant adenovirus encoding HDAC5 fused to green fluorescent protein (multiplicity of infection=50). The next day, medium was replaced with serum-free maintenance medium for 4 hours, and test compounds added. After two hours, NRVM were fixed and imaged by fluorescent microscopy.

Broadly, the inhibition is the share of the control response that was lost under treatment. Read a high inhibition as a strong effect.

T1 sequence (O70528 whole entry): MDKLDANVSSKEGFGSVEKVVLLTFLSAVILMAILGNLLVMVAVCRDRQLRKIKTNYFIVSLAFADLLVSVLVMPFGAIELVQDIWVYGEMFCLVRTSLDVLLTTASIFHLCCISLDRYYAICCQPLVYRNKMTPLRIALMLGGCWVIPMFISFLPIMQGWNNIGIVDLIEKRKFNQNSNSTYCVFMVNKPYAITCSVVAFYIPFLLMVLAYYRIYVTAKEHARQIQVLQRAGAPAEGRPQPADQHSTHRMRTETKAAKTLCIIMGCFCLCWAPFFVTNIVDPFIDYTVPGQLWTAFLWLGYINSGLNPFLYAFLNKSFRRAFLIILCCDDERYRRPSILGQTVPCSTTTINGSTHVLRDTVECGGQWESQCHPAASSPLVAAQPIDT
T3 sequence (P29274 whole entry): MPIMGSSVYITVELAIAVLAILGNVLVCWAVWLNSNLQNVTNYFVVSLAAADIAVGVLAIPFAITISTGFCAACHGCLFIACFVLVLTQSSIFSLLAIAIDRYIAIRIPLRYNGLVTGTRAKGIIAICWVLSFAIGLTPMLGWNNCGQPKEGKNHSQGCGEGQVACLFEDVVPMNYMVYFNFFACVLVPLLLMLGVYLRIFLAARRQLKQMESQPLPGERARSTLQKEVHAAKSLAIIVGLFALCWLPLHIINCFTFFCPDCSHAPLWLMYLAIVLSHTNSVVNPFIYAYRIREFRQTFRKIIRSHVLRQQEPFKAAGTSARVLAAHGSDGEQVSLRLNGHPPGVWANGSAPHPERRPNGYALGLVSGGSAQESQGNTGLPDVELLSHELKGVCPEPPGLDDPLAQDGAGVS

Turning to `Cc1c(-c2ccccc2)nc2sc3c(c2c1N)CCCC3` [Compound 18264, 3-Methyl-2-phenyl-5,6,7,8-tetrahydro-benzo[4,5]thieno[2,3-b]pyridin-4-ylamine], the inhibition at 10 µM in [1] (10 μM compound, n=2) is 17%; in experiment [2], 17%; in experiment [3], 14%; in experiment [4], 24%; in [8], 3%. In [1] (radioligand binding, 10 μM), the “binding (in words)” value is recorded as “No significant binding”. Moreover, the “% Inhibition of Binding” value in [5] was 17%; in experiment [6], 15%; in [7], 4%; in experiment [9], 2%. Further, the ANF expression/secretion entry in experiment [10] is “up-regulated ANF expression”. For the same compound, in experiment [11], the total cellular protein result was “increased”. In addition, the “nuclear export of HDAC5-GFP” value in experiment [12] is reported as “driven from the nucleus to the cytoplasm”.

Source of the values: US20050265999A1, “Modulation of 5-HT2 receptors as a treatment for cardiovascular diseases” (Myogen, Inc., priority 2003, published 2005).
